Experimental data reported in patent US7276337B2, “Compositions and methods for visual ribonuclease detection assays” (Integrated DNA Technologies, Inc., priority 2000, dated 2007).

What was measured:
Ribonuclease A = biological target: T1, Ribonuclease A (Bos taurus, UniProt P61823); test: Visual detection ribonuclease assay, cleavage of Substrate ODN by RNase A; type: biochemical, mammalian; set-up: key to Sensitivity of Substrate ODN to Ribonuclease A, relative signal intensity: +++ = maximum intensity; ++ = moderate intensity; + = faint but above background; − = negative (identical to background); details: visual inspection, UV excitation, Substrate 500 nM, 37° C. 60 minutes
T1 sequence (P61823 27-150): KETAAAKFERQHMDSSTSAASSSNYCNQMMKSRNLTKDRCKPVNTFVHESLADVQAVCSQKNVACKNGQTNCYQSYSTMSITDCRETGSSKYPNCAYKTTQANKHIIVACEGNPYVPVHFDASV
Protocol: Nuclease assays were conducted using the methods of the invention. SEQ ID NO:2 and SEQ ID NO:30 oligonucleotides were individually mixed in 1× Assay Buffer at a concentration of 500 nM (50 pmoles ODN in 100 ul volume) in thin-walled, UV transparent microtubes. RNase A (1 ul, diluted to 0;1 ug/ul) was added to the respective Assay Mixes. […] Assays were set up directly in microtubes as follows:
Assay Mixes were incubated at room temperature for 10 minutes. Assays were visually examined for fluorescence emission directly in the assay tubes without further manipulation. Tubes were suspended above an ultraviolet light source, visually inspected, and photographed using a digital camera. […] The “positive” and “control” reactions appeared markedly different and were easily distinguished. […] The “positive” and “control” reactions were not markedly different to visual inspection.
(§1) Nuclease assays were conducted using the method of the invention with both visual and fluorometric detection methods. Substrates were individually mixed in 1× Assay Buffer at a concentration of 50 nM (50 pmoles oligonucleotide in 1 ml volume) for fluorometric detection or at a concentration of 500 nM (50 pmoles of oligonucleotide in 100 ul volume) for visual detection. Test nucleases were added to respective Assay Mixes beginning at 1 ul stock reagent and proceeding with a 1:10 serial dilution until undetectable. Reaction mixes were incubated at 37° C. for 60 minutes. Fluorometric detection was performed as outlined in Example 2. Visual detection was performed as outlined in Example 1.
Table 6: Sensitivity of different Substrate ODNs to Ribonuclease A. A series of Substrate ODNs were synthesized and tested for sensitivity to RNase A degradation. Stock enzyme was serial diluted to achieve final concentrations of 1 ng/ml, 100 pg/ml, and 10 pg/ml as indicated. Reactions were examined for fluorescence emission by visual inspection using an ultraviolet (UV) light source for excitation. Results were scored as +++, ++, +, or − based on relative signal intensity.
(§2) It is commonly accepted that fluorometry provides for high sensitivity. To be useful, the visual method must also offer high sensitivity. Assays were conducted using the method of the invention with visual detection. Substrate SEQ ID NO:30 was mixed in 1× Assay Buffer at a concentration of 500 nM (50 pmoles ODN in 100 ul volume) in thin-walled, UV transparent tubes. […] Dilutions of stock RNase A, RNase 1, and RNase T1 were made in water. Undiluted and diluted nuclease (1 ul) was added to respective 100 ul Assay Mixes resulting in final dilution factors of 10^−2, 10^−3, 10^−4, 10^−5, 10^−6, and 10^−7. Assays were incubated at room temperature for 10 minutes and visually examined for fluorescence emission with UV excitation. […] The experiment took about 30 minutes to perform, including 15 minutes to set-up serial dilutions, 10 minutes incubation, and 5 minutes to visualize and photograph. Thus the method of the invention allows for a rapid, simple, and convenient visual assay for the presence of ribonuclease activity.

Ribonuclease T1 = biological target: T2, Ribonuclease T1 (Aspergillus oryzae, UniProt P00651); test: Visual detection ribonuclease assay, cleavage of Substrate ODN by RNase T1; type: biochemical; set-up: key to Sensitivity of Substrate ODN to Ribonuclease T1, relative signal intensity: +++ = maximum intensity; ++ = moderate intensity; + = faint but above background; − = negative (identical to background); details: visual inspection, UV excitation, Substrate 500 nM, 37° C. 60 minutes
T2 sequence (P00651 27-130): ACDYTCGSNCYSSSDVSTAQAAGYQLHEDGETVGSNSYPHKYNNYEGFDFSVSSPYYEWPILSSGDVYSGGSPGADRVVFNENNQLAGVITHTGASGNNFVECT
Protocol: as §1
Table 7: Sensitivity of different Substrate ODNs to Ribonuclease T1. A series of Substrate ODNs were synthesized and tested for sensitivity to RNase T1 degradation. Stock enzyme was serial diluted to achieve final concentrations of 0.001 units/ml, 0.0001 units/ml, and 0.00001 units/ml as indicated. Reactions were examined for fluorescence emission by visual inspection using an ultraviolet (UV) light source for excitation. Results were scored as +++, ++, +, or − based on relative signal intensity.
as §2

Row | Substance | Sensitivity of Substrate ODN to Ribonuclease A, relative signal intensity (Ribonuclease A; RNase A 10 pg/ml) | Sensitivity of Substrate ODN to Ribonuclease A, relative signal intensity (Ribonuclease A; RNase A 100 pg/ml) | Sensitivity of Substrate ODN to Ribonuclease A, relative signal intensity (Ribonuclease A; RNase A 1 ng/ml) | Sensitivity of Substrate ODN to Ribonuclease T1, relative signal intensity (Ribonuclease T1; RNase T1 10^−3 units/ml) | Sensitivity of Substrate ODN to Ribonuclease T1, relative signal intensity (Ribonuclease T1; RNase T1 10^−4 units/ml) | Sensitivity of Substrate ODN to Ribonuclease T1, relative signal intensity (Ribonuclease T1; RNase T1 10^−5 units/ml)
1 | 5′ Fluorescein-AAaAA-Dabcyl 3′ (NAAAAAN; 5' fluorescein and 3' Dabcyl labels, nucleotide chemistry not given here) [SEQ ID NO:6] | − | − | − | − | − | −
2 | 5′ Fluorescein-AAcAA-Dabcyl 3′ (NAACAAN; 5' fluorescein and 3' Dabcyl labels, nucleotide chemistry not given here) [SEQ ID NO:5] | − | + | ++ | − | − | −
3 | 5′ Fluorescein-AAgAA-Dabcyl 3′ (NAAGAAN; 5' fluorescein and 3' Dabcyl labels, nucleotide chemistry not given here) [SEQ ID NO:4] | − | − | − | + | − | −
4 | 5′ Fluorescein-AacAA-Dabcyl 3′ (NAACAAN; 5' fluorescein and 3' Dabcyl labels, nucleotide chemistry not given here) [SEQ ID NO:8] | + | +++ | +++ | − | − | −
5 | 5′ Fluorescein-AaggucA-QSY-7 3′ (NAAGGUCAN; 5' fluorescein and 3' QSY-7 labels, nucleotide chemistry not given here) [SEQ ID NO:28] | + | ++ | +++ | +++ | +++ | ++
6 | 5′ Fluorescein-AagucA-Dabcyl 3′ (NAAGUCAN; 5' fluorescein and 3' Dabcyl labels, nucleotide chemistry not given here) [SEQ ID NO:24] | − | + | +++ | ++ | + | −
7 | 5′ Fluorescein-AagucA-QSY-7 3′ (NAAGUCAN; 5' fluorescein and 3' QSY-7 labels, nucleotide chemistry not given here) [SEQ ID NO:27] | + | ++ | +++ | +++ | ++ | +
8 | 5′ Fluorescein-AaugcA-QSY-7 3′ (NAAUGCAN; 5' fluorescein and 3' QSY-7 labels, nucleotide chemistry not given here) [SEQ ID NO:29] | + | +++ | +++ | +++ | +++ | ++
9 | 5′ Fluorescein-AcgaA-Dabcyl 3′ (NACGAAN; 5' fluorescein and 3' Dabcyl labels, nucleotide chemistry not given here) [SEQ ID NO:12] | − | − | ++ | +++ | ++ | −
10 | 5′ Fluorescein-AcgcA-Dabcyl 3′ (NACGCAN; 5' fluorescein and 3' Dabcyl labels, nucleotide chemistry not given here) [SEQ ID NO:13] | − | + | ++ | +++ | ++ | −
11 | 5′ Fluorescein-AcggA-Dabcyl 3′ (NACGGAN; 5' fluorescein and 3' Dabcyl labels, nucleotide chemistry not given here) [SEQ ID NO:14] | − | + | ++ | +++ | +++ | +
